Experimental data from PubChem BioAssay (NCI).
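At the GI50, growth is halved. TGI denotes the concentration required for complete inhibition of growth.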

Assays:
Assay in all cases: NCI tumour cell line growth inhibition, 384-well format
HL-60(TB) leukemia = test system: HL-60(TB) leukemia
HOP-62 NSCLC = test system: HOP-62 NSCLC
BT-549 breast = test system: BT-549 breast
MDA-MB-468 breast = test system: MDA-MB-468 breast
ACHN renal = test system: ACHN renal
SNB-19 CNS = test system: SNB-19 CNS
T-47D breast = test system: T-47D breast
HCT-15 colon = test system: HCT-15 colon
OVCAR-3 ovarian = test system: OVCAR-3 ovarian
IGROV1 ovarian = test system: IGROV1 ovarian
SF-539 CNS = test system: SF-539 CNS
SW-620 colon = test system: SW-620 colon
PC-3 prostate = test system: PC-3 prostate
MDA-MB-435 melanoma = test system: MDA-MB-435 melanoma
HCT-116 colon = test system: HCT-116 colon
CAKI-1 renal = test system: CAKI-1 renal
SF-268 CNS = test system: SF-268 CNS
EKVX NSCLC = test system: EKVX NSCLC
OVCAR-4 ovarian = test system: OVCAR-4 ovarian
SK-MEL-28 melanoma = test system: SK-MEL-28 melanoma
MCF7 breast = test system: MCF7 breast
HOP-92 NSCLC = test system: HOP-92 NSCLC
SN12C renal = test system: SN12C renal
A498 renal = test system: A498 renal
RPMI-8226 leukemia = test system: RPMI-8226 leukemia
CCRF-CEM leukemia = test system: CCRF-CEM leukemia
TK-10 renal = test system: TK-10 renal
UO-31 renal = test system: UO-31 renal
SK-OV-3 ovarian = test system: SK-OV-3 ovarian
SNB-75 CNS = test system: SNB-75 CNS
HT29 colon = test system: HT29 colon
MALME-3M melanoma = test system: MALME-3M melanoma
KM12 colon = test system: KM12 colon
M14 melanoma = test system: M14 melanoma
MOLT-4 leukemia = test system: MOLT-4 leukemia
MDA-MB-231 breast = test system: MDA-MB-231 breast
OVCAR-8 ovarian = test system: OVCAR-8 ovarian
K-562 leukemia = test system: K-562 leukemia
NCI-H23 lung = test system: NCI-H23 lung
NCI-H322M lung = test system: NCI-H322M lung
NCI-H226 lung = test system: NCI-H226 lung
LOX IMVI melanoma = test system: LOX IMVI melanoma
HCC-2998 colon = test system: HCC-2998 colon
A549 NSCLC = test system: A549 NSCLC
RXF 393 renal = test system: RXF 393 renal
UACC-257 melanoma = test system: UACC-257 melanoma
NCI-H522 lung = test system: NCI-H522 lung
SR leukemia = test system: SR leukemia
NCI-H460 NSCLC = test system: NCI-H460 NSCLC
DU-145 prostate = test system: DU-145 prostate
COLO 205 colon = test system: COLO 205 colon
HS 578T breast = test system: HS 578T breast
SK-MEL-5 melanoma = test system: SK-MEL-5 melanoma
786-0 renal = test system: 786-0 renal
UACC-62 melanoma = test system: UACC-62 melanoma
SF-295 CNS = test system: SF-295 CNS
U251 glioblastoma = test system: U251 glioblastoma
NCI/ADR-RES ovarian = test system: NCI/ADR-RES ovarian

For CNCCN(C)Cc1cn[nH]c1-c1ccc(OC2CC(OCCC3CCOCC3)C2)cc1 (stereo unspecified), which GI50 (HL-60(TB) leukemia) is on record?
Its GI50 is 3.26 µM.

What about the TGI (HL-60(TB) leukemia) of the same compound?
The TGI was 12.4 µM.

What about the GI50 (HOP-62 NSCLC) of the same compound?
Its GI50 is 58.3 µM.

And the TGI (HOP-62 NSCLC)?
The TGI was greater than 100 µM.

What about the GI50 (BT-549 breast) of the same compound?
The GI50 was 61.4 µM.

And the TGI (BT-549 breast)?
The TGI was greater than 100 µM.

What about the GI50 (MDA-MB-468 breast) of the same compound?
Its GI50 is 45.5 µM.

And the TGI (MDA-MB-468 breast)?
Its TGI is greater than 100 µM.

And the GI50 (ACHN renal)?
The GI50 was 70.9 µM.

What about the TGI (ACHN renal) of the same compound?
Its TGI is greater than 100 µM.

What about the GI50 (SNB-19 CNS) of the same compound?
The GI50 was greater than 100 µM.

And the TGI (SNB-19 CNS)?
Its TGI is greater than 100 µM.

And the GI50 (T-47D breast)?
Its GI50 is 71.2 µM.

And the TGI (T-47D breast)?
Its TGI is greater than 100 µM.

And the GI50 (HCT-15 colon)?
Its GI50 is greater than 100 µM.

And the TGI (HCT-15 colon)?
The TGI was greater than 100 µM.

And the GI50 (OVCAR-3 ovarian)?
The GI50 was 24 µM.

What about the TGI (OVCAR-3 ovarian) of the same compound?
Its TGI is greater than 100 µM.

What about the GI50 (IGROV1 ovarian) of the same compound?
Its GI50 is 37.1 µM.

What about the TGI (IGROV1 ovarian) of the same compound?
The TGI was greater than 100 µM.

And the GI50 (SF-539 CNS)?
Its GI50 is 94.4 µM.

And the TGI (SF-539 CNS)?
Its TGI is greater than 100 µM.

What about the GI50 (SW-620 colon) of the same compound?
Its GI50 is greater than 100 µM.

What about the TGI (SW-620 colon) of the same compound?
Its TGI is greater than 100 µM.

And the GI50 (PC-3 prostate)?
The GI50 was 75.4 µM.

And the TGI (PC-3 prostate)?
The TGI was greater than 100 µM.

What about the GI50 (MDA-MB-435 melanoma) of the same compound?
The GI50 was greater than 100 µM.

What about the TGI (MDA-MB-435 melanoma) of the same compound?
Its TGI is greater than 100 µM.

And the GI50 (HCT-116 colon)?
Its GI50 is 36.6 µM.

And the TGI (HCT-116 colon)?
The TGI was greater than 100 µM.

And the GI50 (CAKI-1 renal)?
The GI50 was 41.2 µM.

And the TGI (CAKI-1 renal)?
Its TGI is greater than 100 µM.

And the GI50 (SF-268 CNS)?
The GI50 was 83.6 µM.

And the TGI (SF-268 CNS)?
Its TGI is greater than 100 µM.

What about the GI50 (EKVX NSCLC) of the same compound?
Its GI50 is 60.6 µM.

What about the TGI (EKVX NSCLC) of the same compound?
Its TGI is greater than 100 µM.

And the GI50 (OVCAR-4 ovarian)?
Its GI50 is greater than 100 µM.

And the TGI (OVCAR-4 ovarian)?
The TGI was greater than 100 µM.

What about the GI50 (SK-MEL-28 melanoma) of the same compound?
Its GI50 is 43 µM.

And the TGI (SK-MEL-28 melanoma)?
The TGI was greater than 100 µM.

What about the GI50 (MCF7 breast) of the same compound?
The GI50 was 51.5 µM.

What about the TGI (MCF7 breast) of the same compound?
The TGI was greater than 100 µM.

What about the GI50 (HOP-92 NSCLC) of the same compound?
The GI50 was 42.5 µM.

And the TGI (HOP-92 NSCLC)?
The TGI was greater than 100 µM.

What about the GI50 (SN12C renal) of the same compound?
Its GI50 is 89.2 µM.

What about the TGI (SN12C renal) of the same compound?
Its TGI is greater than 100 µM.

And the GI50 (A498 renal)?
Its GI50 is 48.9 µM.

And the TGI (A498 renal)?
The TGI was greater than 100 µM.

And the GI50 (RPMI-8226 leukemia)?
The GI50 was 24.5 µM.

And the TGI (RPMI-8226 leukemia)?
Its TGI is greater than 100 µM.

What about the GI50 (CCRF-CEM leukemia) of the same compound?
Its GI50 is 53.8 µM.

What about the TGI (CCRF-CEM leukemia) of the same compound?
The TGI was greater than 100 µM.

And the GI50 (TK-10 renal)?
The GI50 was 84.5 µM.

And the TGI (TK-10 renal)?
Its TGI is greater than 100 µM.

And the GI50 (UO-31 renal)?
The GI50 was 80.2 µM.

And the TGI (UO-31 renal)?
Its TGI is greater than 100 µM.

And the GI50 (SK-OV-3 ovarian)?
The GI50 was greater than 100 µM.

What about the TGI (SK-OV-3 ovarian) of the same compound?
The TGI was greater than 100 µM.

What about the GI50 (SNB-75 CNS) of the same compound?
Its GI50 is greater than 100 µM.

And the TGI (SNB-75 CNS)?
Its TGI is greater than 100 µM.

And the GI50 (HT29 colon)?
The GI50 was 24.6 µM.

What about the TGI (HT29 colon) of the same compound?
The TGI was 71.5 µM.

And the GI50 (MALME-3M melanoma)?
Its GI50 is 13.6 µM.

What about the TGI (MALME-3M melanoma) of the same compound?
Its TGI is 56.2 µM.

What about the GI50 (KM12 colon) of the same compound?
Its GI50 is greater than 100 µM.

And the TGI (KM12 colon)?
The TGI was greater than 100 µM.

What about the GI50 (M14 melanoma) of the same compound?
Its GI50 is greater than 100 µM.

What about the TGI (M14 melanoma) of the same compound?
Its TGI is greater than 100 µM.

What about the GI50 (MOLT-4 leukemia) of the same compound?
Its GI50 is 36.8 µM.

And the TGI (MOLT-4 leukemia)?
The TGI was greater than 100 µM.

And the GI50 (MDA-MB-231 breast)?
The GI50 was 78.8 µM.

What about the TGI (MDA-MB-231 breast) of the same compound?
The TGI was greater than 100 µM.

What about the GI50 (OVCAR-8 ovarian) of the same compound?
The GI50 was greater than 100 µM.

And the TGI (OVCAR-8 ovarian)?
Its TGI is greater than 100 µM.

And the GI50 (K-562 leukemia)?
The GI50 was 9.91 µM.

What about the TGI (K-562 leukemia) of the same compound?
The TGI was 25 µM.

What about the GI50 (NCI-H23 lung) of the same compound?
The GI50 was 40 µM.

What about the TGI (NCI-H23 lung) of the same compound?
Its TGI is greater than 100 µM.

What about the GI50 (NCI-H322M lung) of the same compound?
The GI50 was greater than 100 µM.

And the TGI (NCI-H322M lung)?
Its TGI is greater than 100 µM.

What about the GI50 (NCI-H226 lung) of the same compound?
The GI50 was greater than 100 µM.

And the TGI (NCI-H226 lung)?
The TGI was greater than 100 µM.

And the GI50 (LOX IMVI melanoma)?
The GI50 was 32.6 µM.

What about the TGI (LOX IMVI melanoma) of the same compound?
Its TGI is greater than 100 µM.

And the GI50 (HCC-2998 colon)?
Its GI50 is 50.7 µM.

What about the TGI (HCC-2998 colon) of the same compound?
Its TGI is greater than 100 µM.

What about the GI50 (A549 NSCLC) of the same compound?
The GI50 was 79.6 µM.

What about the TGI (A549 NSCLC) of the same compound?
Its TGI is greater than 100 µM.

And the GI50 (RXF 393 renal)?
Its GI50 is 69.8 µM.

And the TGI (RXF 393 renal)?
Its TGI is greater than 100 µM.

What about the GI50 (UACC-257 melanoma) of the same compound?
The GI50 was 18.9 µM.

What about the TGI (UACC-257 melanoma) of the same compound?
Its TGI is 43.3 µM.

And the GI50 (NCI-H522 lung)?
The GI50 was greater than 100 µM.

And the TGI (NCI-H522 lung)?
The TGI was greater than 100 µM.

What about the GI50 (SR leukemia) of the same compound?
Its GI50 is 7.14 µM.

What about the TGI (SR leukemia) of the same compound?
Its TGI is 15 µM.

And the GI50 (NCI-H460 NSCLC)?
Its GI50 is 43.8 µM.

And the TGI (NCI-H460 NSCLC)?
Its TGI is greater than 100 µM.

What about the GI50 (DU-145 prostate) of the same compound?
The GI50 was greater than 100 µM.

And the TGI (DU-145 prostate)?
The TGI was greater than 100 µM.

What about the GI50 (COLO 205 colon) of the same compound?
Its GI50 is 96.4 µM.

And the TGI (COLO 205 colon)?
The TGI was greater than 100 µM.

And the GI50 (HS 578T breast)?
Its GI50 is greater than 100 µM.

And the TGI (HS 578T breast)?
Its TGI is greater than 100 µM.

What about the GI50 (SK-MEL-5 melanoma) of the same compound?
The GI50 was 16.1 µM.

And the TGI (SK-MEL-5 melanoma)?
The TGI was greater than 100 µM.

And the GI50 ([…]-0 renal)?
Its GI50 is 41.4 µM.

And the TGI (786-0 renal)?
Its TGI is greater than 100 µM.

What about the GI50 (UACC-62 melanoma) of the same compound?
The GI50 was 22 µM.

And the TGI (UACC-62 melanoma)?
Its TGI is 66.6 µM.

And the GI50 (SF-295 CNS)?
The GI50 was 64.5 µM.

And the TGI (SF-295 CNS)?
Its TGI is greater than 100 µM.

What about the GI50 (U251 glioblastoma) of the same compound?
Its GI50 is 51.8 µM.

And the TGI (U251 glioblastoma)?
The TGI was greater than 100 µM.

What about the GI50 (NCI/ADR-RES ovarian) of the same compound?
The GI50 was greater than 100 µM.

And the TGI (NCI/ADR-RES ovarian)?
Its TGI is greater than 100 µM.
